Test results published in ChEMBL document CHEMBL1201861, “Genomics of Drug Sensitity in Cancer screening data, Wellcome Trust Sanger Institute”.

Experiments:
Experiment in all cases: cells
SW1088 = format: functional, cell-based; conditions: Homo sapiens;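 note: growth inhibition of human SW1088 cells, read out by a cell viability assay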
Description: SANGER: Inhibition of human SW1088 cell growth in a cell viability assay.

IGROV-1 = format: functional, cell-based; conditions: Homo sapiens;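 note: reduction of IGROV-1 cell growth, read out with a viability assay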
Description: SANGER: Inhibition of human IGROV-1 cell growth in a cell viability assay.

COLO-680N = format: functional, cell-based; conditions: Homo sapiens;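 note: cell viability assay used to measure inhibition of COLO-680N cell growth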
Description: SANGER: Inhibition of human COLO-680N cell growth in a cell viability assay.

NCI-H2347 = format: functional, cell-based; conditions: Homo sapiens;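 note: growth inhibition of the cell line, read out with a cell viability assay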
Description: SANGER: Inhibition of human NCI-H2347 cell growth in a cell viability assay.

NCI-H810 = format: functional, cell-based; conditions: Homo sapiens;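 note: IC50 reflects inhibition of cancer cell line growth, read out with a cell viability assay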
Description: SANGER: Inhibition of human NCI-H810 cell growth in a cell viability assay.

KYSE-140 = format: functional, cell-based; conditions: Homo sapiens;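 note: cell viability assay measuring growth inhibition in human KYSE-140 cells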
Description: SANGER: Inhibition of human KYSE-140 cell growth in a cell viability assay.

NCI-H522 = format: functional, cell-based; conditions: Homo sapiens;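 note: cell viability assay measuring growth inhibition of human NCI-H522 cells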
Description: SANGER: Inhibition of human NCI-H522 cell growth in a cell viability assay.

HPAF-II = format: functional, cell-based; conditions: Homo sapiens;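 note: growth inhibition of HPAF-II cells, read out with a cell viability assay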
Description: SANGER: Inhibition of human HPAF-II cell growth in a cell viability assay.

SBC-5 = format: functional, cell-based; conditions: Homo sapiens;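 note: cell viability assay read-out, IC50 is the concentration that inhibits growth of the cells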
Description: SANGER: Inhibition of human SBC-5 cell growth in a cell viability assay.

KYSE-270 = format: functional, cell-based; conditions: Homo sapiens;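 note: cell growth inhibition measured with a viability assay in the human KYSE-270 line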
Description: SANGER: Inhibition of human KYSE-270 cell growth in a cell viability assay.

OVCAR-8 = format: functional, cell-based; conditions: Homo sapiens;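 note: growth inhibition of human OVCAR-8 cells, read out by a cell viability assay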
Description: SANGER: Inhibition of human OVCAR-8 cell growth in a cell viability assay.

KYSE-510 = format: functional, cell-based; conditions: Homo sapiens;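 note: cell viability readout used to measure how strongly growth of the cell line is suppressed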
Description: SANGER: Inhibition of human KYSE-510 cell growth in a cell viability assay.

KYSE-150 cell line = format: functional, cell-based; conditions: Homo sapiens;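 note: growth inhibition of human KYSE-150 cells, read out with a cell viability assay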
Description: SANGER: Inhibition of human KYSE-150 cell growth in a cell viability assay.

SNU-449 = format: functional, cell-based; conditions: Homo sapiens
Description: SANGER: Inhibition of human SNU-449 cell growth in a cell viability assay.

GMS-10 = format: functional, cell-based; conditions: Homo sapiens;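 note: growth inhibition of GMS-10 cells, read out as cell viability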
Description: SANGER: Inhibition of human GMS-10 cell growth in a cell viability assay.

KP-N-YN = format: functional, cell-based; conditions: Homo sapiens;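 note: growth inhibition of KP-N-YN cells, read out with a cell viability assay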
Description: SANGER: Inhibition of human KP-N-YN cell growth in a cell viability assay.

EW-22 = format: functional, cell-based; conditions: Homo sapiens;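 note: growth inhibition of the EW-22 cell line, measured with a cell viability readout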
Description: SANGER: Inhibition of human EW-22 cell growth in a cell viability assay.

SCC-4 = format: functional, cell-based; conditions: Homo sapiens;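 note: growth inhibition of human SCC-4 cells, read out as cell viability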
Description: SANGER: Inhibition of human SCC-4 cell growth in a cell viability assay.

A 172 = format: functional, cell-based; conditions: Homo sapiens;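 note: growth inhibition of A172 cells, measured with a cell viability readout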
Description: SANGER: Inhibition of human A172 cell growth in a cell viability assay.

MKN-7 = format: functional, cell-based; conditions: Homo sapiens;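 note: growth inhibition of MKN-7 cells, read out with a cell viability assay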
Description: SANGER: Inhibition of human MKN7 cell growth in a cell viability assay.

COLO-741 = format: functional, cell-based; conditions: Homo sapiens
Description: SANGER: Inhibition of human COLO-741 cell growth in a cell viability assay.

A2058 = format: functional, cell-based; conditions: Homo sapiens;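 note: reduction of A2058 cell growth, read out with a viability assay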
Description: SANGER: Inhibition of human A2058 cell growth in a cell viability assay.

SW948 = format: functional, cell-based; conditions: Homo sapiens;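 note: growth inhibition of SW948 cells, read out with a cell viability assay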
Description: SANGER: Inhibition of human SW948 cell growth in a cell viability assay.

NCI-H460 = format: functional, cell-based; conditions: Homo sapiens;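 note: cell viability assay scoring growth inhibition of human NCI-H460 cells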
Description: SANGER: Inhibition of human NCI-H460 cell growth in a cell viability assay.

BCPAP = format: functional, cell-based; conditions: Homo sapiens;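 note: growth inhibition of BCPAP cells, read out in a cell viability assay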
Description: SANGER: Inhibition of human BCPAP cell growth in a cell viability assay.

RO82-W-1 = format: functional, cell-based; conditions: Homo sapiens;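 note: growth inhibition of human RO82-W-1 cells, measured with a cell viability assay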
Description: SANGER: Inhibition of human RO82-W-1 cell growth in a cell viability assay.

HCC1806 = format: functional, cell-based; conditions: Homo sapiens;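 note: growth inhibition of the cancer cell line, determined with a cell viability assay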
Description: SANGER: Inhibition of human HCC1806 cell growth in a cell viability assay.

LU-99A = format: functional, cell-based; conditions: Homo sapiens;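 note: growth inhibition of LU-99A cells, read out with a cell viability assay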
Description: SANGER: Inhibition of human LU-99A cell growth in a cell viability assay.

RVH-421 = format: functional, cell-based; conditions: Homo sapiens
Description: SANGER: Inhibition of human RVH-421 cell growth in a cell viability assay.

NCI-H2405 = format: functional, cell-based; conditions: Homo sapiens;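 note: growth inhibition of the human cell line, read out with a cell viability assay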
Description: SANGER: Inhibition of human NCI-H2405 cell growth in a cell viability assay.

639-V = format: functional, cell-based; conditions: Homo sapiens;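 note: growth inhibition of 639-V cells, read out with a cell viability assay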
Description: SANGER: Inhibition of human 639-V cell growth in a cell viability assay.

Ca-Ski = format: functional, cell-based; conditions: Homo sapiens;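 note: cell viability assay measuring inhibition of Ca-Ski cell growth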
Description: SANGER: Inhibition of human Ca-Ski cell growth in a cell viability assay.

ME-180 = format: functional, cell-based; conditions: Homo sapiens;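 note: cell viability assay measuring growth inhibition of ME-180 cells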
Description: SANGER: Inhibition of human ME-180 cell growth in a cell viability assay.

MDA-MB-453 = format: functional, cell-based; conditions: Homo sapiens
Description: SANGER: Inhibition of human MDA-MB-453 cell growth in a cell viability assay.

HT-3 = format: functional, cell-based; conditions: Homo sapiens;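 note: growth inhibition measured with a cell viability readout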
Description: SANGER: Inhibition of human HT-3 cell growth in a cell viability assay.

G-401 = format: functional, cell-based; conditions: Homo sapiens
Description: SANGER: Inhibition of human G-401 cell growth in a cell viability assay.

NB12 = format: functional, cell-based; conditions: Homo sapiens;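 note: growth inhibition of human NB12 cells, read out by a cell viability assay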
Description: SANGER: Inhibition of human NB12 cell growth in a cell viability assay.

RMG-I = format: functional, cell-based; conditions: Homo sapiens;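 note: growth inhibition of human RMG-I cells, read out with a cell viability assay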
Description: SANGER: Inhibition of human RMG-I cell growth in a cell viability assay.

SW756 = format: functional, cell-based; conditions: Homo sapiens;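 note: growth inhibition of human SW756 cells, read out with a cell viability assay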
Description: SANGER: Inhibition of human SW756 cell growth in a cell viability assay.

MFH-ino = format: functional, cell-based, Homo sapiens; conditions: Homo sapiens, MFH-ino;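 note: growth inhibition of human MFH-ino cells, read out by a cell viability assay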
Description: SANGER: Inhibition of human MFH-ino cell growth in a cell viability assay.

SMILES	IC50 (SW1088) [µM]	IC50 (IGROV-1) [µM]	IC50 (COLO-680N) [µM]	IC50 (NCI-H2347) [µM]	IC50 (NCI-H810) [µM]	IC50 (KYSE-140) [µM]	IC50 (NCI-H522) [µM]	IC50 (HPAF-II) [µM]	IC50 (SBC-5) [µM]	IC50 (KYSE-270) [µM]	IC50 (OVCAR-8) [µM]	IC50 (KYSE-510) [µM]	IC50 (KYSE-150 cell line) [µM]	IC50 (SNU-449) [µM]	IC50 (GMS-10) [µM]	IC50 (KP-N-YN) [µM]	IC50 (EW-22) [µM]	IC50 (SCC-4) [µM]	IC50 (MKN-7) [µM]	IC50 (COLO-741) [µM]	other results
O=C1NC(=O)c2c1c(-c1ccccc1Cl)cc1[nH]c3ccc(O)cc3c21	> 2	> 2	> 2	> 2	> 2	> 2	> 2	> 2	> 2	1.48	1.18	> 2	> 2	> 2	> 2	> 2	> 2	> 2	> 2	> 2	IC50 (A 172): > 2 µM; IC50 (A2058): > 2 µM; IC50 (SW948): > 2 µM; IC50 (NCI-H460): > 2 µM; IC50 (BCPAP): > 2 µM; IC50 (RO82-W-1): > 2 µM; IC50 (HCC1806): > 2 µM; IC50 (LU-99A): > 2 µM; IC50 (RVH-421): > 2 µM; IC50 (NCI-H2405): > 2 µM; IC50 (639-V): > 2 µM; IC50 (Ca-Ski): > 2 µM; IC50 (ME-180): > 2 µM; IC50 (MDA-MB-453): > 2 µM; IC50 (HT-3): > 2 µM; IC50 (G-401): > 2 µM; IC50 (NB12): > 2 µM
O=C(NCCCNc1nc(Nc2cccc(NC(=O)N3CCCC3)c2)ncc1I)c1cccs1 [BX-795]	2	> 5	> 5	4.92	3.9	3.72	> 5	> 5	> 5	> 5	> 5	4.96	2.73	5	4.12	> 5	3.91	> 5	> 5	> 5	IC50 (RMG-I): > 5 µM; IC50 (A 172): 4.45 µM; IC50 (A2058): 2.98 µM; IC50 (SW948): > 5 µM; IC50 (NCI-H460): 2.44 µM; IC50 (BCPAP): 2.23 µM; IC50 (RO82-W-1): 4.34 µM; IC50 (HCC1806): > 5 µM; IC50 (LU-99A): > 5 µM; IC50 (RVH-421): > 5 µM; IC50 (SW756): > 5 µM; IC50 (NCI-H2405): 4.68 µM; IC50 (639-V): > 5 µM; IC50 (Ca-Ski): > 5 µM; IC50 (ME-180): 3.39 µM; IC50 (MDA-MB-453): > 5 µM; IC50 (HT-3): > 5 µM; IC50 (G-401): 2.56 µM; IC50 (NB12): > 5 µM
CN(C)CCOc1ccc(-c2nc(-c3ccncc3)c(-c3ccc4c(c3)CC/C4=N\O)[nH]2)cc1 [SB590885]	> 5	> 5	> 5	> 5	> 5	> 5	> 5	> 5	> 5	> 5	> 5	> 5	> 5	> 5	> 5	> 5	> 5	> 5	> 5	> 5	IC50 (RMG-I): > 5 µM; IC50 (A2058): > 5 µM; IC50 (SW948): > 5 µM; IC50 (NCI-H460): > 5 µM; IC50 (BCPAP): > 5 µM; IC50 (RO82-W-1): > 5 µM; IC50 (HCC1806): > 5 µM; IC50 (LU-99A): > 5 µM; IC50 (RVH-421): 0.621 µM; IC50 (SW756): > 5 µM; IC50 (NCI-H2405): > 5 µM; IC50 (639-V): > 5 µM; IC50 (Ca-Ski): > 5 µM; IC50 (ME-180): > 5 µM; IC50 (MDA-MB-453): > 5 µM; IC50 (HT-3): > 5 µM; IC50 (G-401): > 5 µM; IC50 (NB12): > 5 µM
Cc1ccc(-n2nc(C(C)(C)C)cc2NC(=O)Nc2ccc(OCCN3CCOCC3)c3ccccc23)cc1 [DORAMAPIMOD]	> 10	> 10	> 10	> 10	> 10	> 10	> 10	> 10	> 10	> 10	> 10	> 10	> 10	> 10	> 10	8.2	> 10	> 10	> 10	> 10	IC50 (RMG-I): > 10 µM; IC50 (A 172): > 10 µM; IC50 (A2058): > 10 µM; IC50 (MFH-ino): > 10 µM; IC50 (SW948): > 10 µM; IC50 (NCI-H460): > 10 µM; IC50 (BCPAP): > 10 µM; IC50 (RO82-W-1): > 10 µM; IC50 (HCC1806): > 10 µM; IC50 (LU-99A): > 10 µM; IC50 (RVH-421): > 10 µM; IC50 (SW756): > 10 µM; IC50 (NCI-H2405): > 10 µM; IC50 (639-V): > 10 µM; IC50 (Ca-Ski): > 10 µM; IC50 (ME-180): > 10 µM; IC50 (MDA-MB-453): > 10 µM; IC50 (HT-3): > 10 µM; IC50 (G-401): > 10 µM; IC50 (NB12): > 10 µM
CS(=O)(=O)N1CCN(Cc2cc3nc(-c4cccc5[nH]ncc45)nc(N4CCOCC4)c3s2)CC1 [PICTILISIB]	2.49	0.634	> 4	> 4	> 4	> 4	> 4	3.1	> 4	1.3	> 4	> 4	> 4	2.57	> 4	> 4	2.25	> 4	2.71	> 4	IC50 (RMG-I): > 4 µM; IC50 (A2058): > 4 µM; IC50 (SW948): > 4 µM; IC50 (NCI-H460): > 4 µM; IC50 (BCPAP): > 4 µM; IC50 (RO82-W-1): > 4 µM; IC50 (HCC1806): > 4 µM; IC50 (LU-99A): > 4 µM; IC50 (RVH-421): > 4 µM; IC50 (SW756): > 4 µM; IC50 (NCI-H2405): > 4 µM; IC50 (639-V): 1.5 µM; IC50 (Ca-Ski): > 4 µM; IC50 (ME-180): 1.93 µM; IC50 (MDA-MB-453): > 4 µM; IC50 (HT-3): 2.49 µM; IC50 (G-401): 1.62 µM; IC50 (NB12): 2.85 µM
NC1(c2ccc(-c3nc4ccn5c(=O)[nH]nc5c4cc3-c3ccccc3)cc2)CCC1 [MK-2206]	1.95	0.552	> 4	> 4	> 4	> 4	> 4	> 4	> 4	> 4	> 4	> 4	> 4	> 4	> 4	> 4	> 4	> 4	> 4	> 4	IC50 (RMG-I): 2.16 µM; IC50 (SW948): > 4 µM; IC50 (NCI-H460): > 4 µM; IC50 (BCPAP): > 4 µM; IC50 (RO82-W-1): > 4 µM; IC50 (HCC1806): > 4 µM; IC50 (LU-99A): > 4 µM; IC50 (RVH-421): 3.82 µM; IC50 (SW756): > 4 µM; IC50 (NCI-H2405): > 4 µM; IC50 (639-V): > 4 µM; IC50 (Ca-Ski): > 4 µM; IC50 (ME-180): 1.57 µM; IC50 (MDA-MB-453): > 4 µM; IC50 (HT-3): > 4 µM; IC50 (G-401): 1.3 µM; IC50 (NB12): > 4 µM
CC1(C)CCC(c2ccc(Cl)cc2)=C(CN2CCN(c3ccc(C(=O)NS(=O)(=O)c4ccc(N[C@H](CCN5CCOCC5)CSc5ccccc5)c(S(=O)(=O)C(F)(F)F)c4)cc3)CC2)C1 [NAVITOCLAX]	> 2	> 2	> 2	> 2	> 2	> 2	> 2	0.926	> 2	> 2	> 2	> 2	> 2	> 2	> 2	0.236	0.467	1.6	> 2	> 2	IC50 (RMG-I): 0.495 µM; IC50 (A 172): > 2 µM; IC50 (A2058): > 2 µM; IC50 (SW948): > 2 µM; IC50 (NCI-H460): > 2 µM; IC50 (BCPAP): > 2 µM; IC50 (RO82-W-1): > 2 µM; IC50 (HCC1806): > 2 µM; IC50 (LU-99A): > 2 µM; IC50 (RVH-421): > 2 µM; IC50 (SW756): > 2 µM; IC50 (NCI-H2405): > 2 µM; IC50 (639-V): > 2 µM; IC50 (Ca-Ski): > 2 µM; IC50 (ME-180): > 2 µM; IC50 (MDA-MB-453): > 2 µM; IC50 (HT-3): > 2 µM; IC50 (G-401): > 2 µM; IC50 (NB12): 0.231 µM
